Source: patent US9040523B2, “Antifungal 5,6-dihydro-4H-pyrrolo[1,2-α][1,4]-benzodiazepines and 6H-pyrrolo[1,2-α][1,4]benzodiazepines substituted with benzene derivatives” (JANSSEN PHARMACEUTICA NV, priority 2010, dated 2015)

Tests used:
[1] = test system: Sporothrix schenkii B62482; experiment: Antifungal activity in vitro (resazurin susceptibility screen), Inf. A; type: cell-based; conditions: Sporothrix, B62482, Sporothrix schenkii B62482; 27 °C, 4 days, resa time 24 hours; highest in-test concentration 64 μM; read-out: Inf. A pIC50 (converted)
How it was run: (§1)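 Each well is seeded with 10^3 colony-forming units against spotted compound dilutions; untreated fungus and plain RPMI-MOPS define the 100% and 0% growth limits.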

Microsporum canis B68128 = experiment: Antifungal activity in vitro (resazurin susceptibility screen), Inf. B; type: cell-based; conditions: Microsporum canis, B68128, Microsporum canis B68128; 27 °C, 9 days, resa time 24 hours; read-out: Inf. B pIC50 (converted)
How it was run: (§2)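 Each well was inoculated with 10^3 cfu of fungus onto dried, pre-spotted compound serial dilutions in RPMI-MOPS medium, with fungal growth read by resazurin. Growth was referenced to drug-free culture (100%) and medium-only (0%) controls on each plate.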

[2] = test system: Trichophyton rubrum B68183; experiment: Antifungal activity in vitro (resazurin susceptibility screen), Inf. C; type: cell-based; conditions: Trichophyton rubrum B68183; 27 °C, 7 days, resa time 24 hours; read-out: Inf. C pIC50 (converted)
How it was run: as §1

[3] = test system: Candida parapsilosis B66126; experiment: Antifungal activity in vitro (resazurin susceptibility screen), Inf. D; type: cell-based; conditions: Lodderomyces parapsilosis; Candida parapsilosis B66126; 37 °C, 24 hours, resa time 4 hours; read-out: Inf. D pIC50 (converted)
How it was run: as §2

[4] = test system: Aspergillus fumigatus B42928; experiment: Antifungal activity in vitro (resazurin susceptibility screen), Inf. E; type: cell-based; conditions: Aspergillus fumigatus B42928; 27 °C, 48 hours, resa time 17 hours; read-out: Inf. E pIC50 (converted)
How it was run: as §1

[5] = test system: Cryptococcus neoformans B66663; experiment: Antifungal activity in vitro (resazurin susceptibility screen), Inf. F; type: cell-based; conditions: Cryptococcus neoformans, B66663, Cryptococcus neoformans B66663; 37 °C, 24 hours, resa time 4 hours; read-out: Inf. F pIC50 (converted)
How it was run: as §1

[6] = test system: Trichophyton mentagrophytes B70554; experiment: Antifungal activity in vitro (resazurin susceptibility screen), Inf. G; type: cell-based; conditions: Trichophyton mentagrophytes, B70554, Trichophyton mentagrophytes B70554; 27 °C, 7 days, resa time 24 hours; read-out: Inf. G pIC50 (converted)
How it was run: as §2

[7] = Liver metabolic stability assay, hLM; type: in vitro ADME, human; conditions: human liver microsomes, 1 mg protein/ml, 5 μM test compound, 15 min, 37 °C
[8] = Liver metabolic stability assay, mLM; type: in vitro ADME; conditions: mouse liver microsomes, 1 mg protein/ml, 5 μM test compound, 15 min, 37 °C
Experimental: (§3) Liver preparations (microsomal fractions) were obtained from BD Gentest (San Jose, Calif., US). Metabolic stability was assessed using the following assay conditions. […] The mixture was pre-incubated at 37° C. for 5 min and the enzymatic reaction was started by addition of 5 μM test compound. After 0 (control) and 15 minutes (min), the reactions were terminated by addition of […] (500 μl). The precipitated material was removed by centrifugation at 1200 g for 10 min. The supernatant was analysed by LC-MS/MS on a ThermoFinnigan LCQ Deca XP ion-trap mass spectrometer equipped with an atmospheric pressure chemical ionisation source. Calculation of %-compound remaining was as described by Kantharaj et al. 2003 ((Kantharaj E., Tuytelaars A, Proost P E A, Ongel Z, van […] (2003). Simultaneous measurement of drug metabolic stability and identification of metabolites using ion-trap mass spectrometry.

[9] = Liver metabolic stability assay, gpLM; type: in vitro ADME, guinea pig; conditions: guinea pig microsomes, 1 mg protein/ml, 5 μM test compound, 15 min, 37 °C
Experimental: as §3

CYP3A4 = CYP3A4 (Homo sapiens, UniProt P08684); experiment: Cytochrome P450 inhibition, Protocol A, cDNA expressed proteins, fluorogenic substrates; type: in vitro ADME; conditions: % inhibition at 10 μM, cDNA expressed protein
How it was run: (§4)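 cDNA-expressed enzymes with fluorogenic substrates (three separate ones for CYP3A4) in sodium/potassium buffer pH 7.4 plus NADPH-generating system. Compounds at 1 nM to 10 μM final, prewarmed 5 min at 37° C, reaction started with NADP+, stopped, then fluorescence measured.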

CYP1A2 = biological target: T1, CYP1A2 (Homo sapiens, UniProt P05177); experiment: Cytochrome P450 inhibition, Protocol A, cDNA expressed proteins, fluorogenic substrate; type: in vitro ADME; conditions: % inhibition at 10 μM; substrate CEC; cDNA expressed protein
T1 sequence (P05177 1-516): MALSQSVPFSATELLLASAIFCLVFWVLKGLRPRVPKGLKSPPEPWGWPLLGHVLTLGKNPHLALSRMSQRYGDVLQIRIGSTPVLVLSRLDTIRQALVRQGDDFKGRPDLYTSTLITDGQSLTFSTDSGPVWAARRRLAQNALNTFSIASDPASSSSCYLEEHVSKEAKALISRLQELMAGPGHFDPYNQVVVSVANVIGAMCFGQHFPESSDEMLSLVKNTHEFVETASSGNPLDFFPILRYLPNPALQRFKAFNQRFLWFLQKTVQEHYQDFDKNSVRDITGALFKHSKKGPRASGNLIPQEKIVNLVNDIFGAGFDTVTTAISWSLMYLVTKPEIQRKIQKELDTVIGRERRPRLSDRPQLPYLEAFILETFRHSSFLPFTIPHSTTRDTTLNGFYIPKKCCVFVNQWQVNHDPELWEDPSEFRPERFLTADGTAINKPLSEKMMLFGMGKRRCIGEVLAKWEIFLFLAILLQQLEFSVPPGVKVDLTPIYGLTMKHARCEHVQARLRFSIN
How it was run: as §4

CYP2C9 = CYP2C9 (Homo sapiens, UniProt P11712); experiment: as above; type: in vitro ADME; conditions: % inhibition at 10 μM; substrate MFC; cDNA expressed protein
How it was run: as §4

CYP2D6 = CYP2D6 (Homo sapiens, UniProt P10635); experiment: as above; type: in vitro ADME; conditions: % inhibition at 10 μM; substrate AMMC; cDNA expressed protein
How it was run: as §4

[10] = test system: Scedosporium apiospermum IHEM3817; experiment: Antifungal activity in vitro (resazurin susceptibility screen), Inf. H; type: cell-based; conditions: 37 °C, 48 hours, resa time 17 hours, read-out: Inf. H pIC50 (converted)
Experimental: (§5) The standard susceptibility screen was performed in 96-well plates (U-bottom, Greiner Bio-One). […] These serial dilutions (10 n1) were then spotted onto test-plates that could be stored in the dark at 4° C. for a maximum period of 2 weeks. […] The different fungal species/isolates (Table 3a) were cryopreserved and 1/1000 diluted in medium just prior to use. A standard inoculum of 200 μl containing 10^3 colony-forming unit (cfu) was then added to each well. A positive control (100% growth=fungal culture without antifungal) and a negative control (0% growth ═RPMI-MOPS medium) were included on each plate. […] [table]

[11] = test system: Scedosporium prolificans IHEM21157; experiment: Antifungal activity in vitro (resazurin susceptibility screen), Inf. I; type: cell-based; conditions: Lomentospora prolificans, 37 °C, 48 hours, resa time 17 hours, read-out: Inf. I pIC50 (converted)
Experimental: as §5

Rhizopus oryzae IHEM5223 = experiment: Antifungal activity in vitro (resazurin susceptibility screen), Inf. J; type: cell-based; conditions: Rhizopus arrhizus, 37 °C, 24 hours, resa time 6 hours, read-out: Inf. J pIC50 (converted)
Experimental: as §5

[12] = test system: Rhizomucor miehei IHEM13391; experiment: Antifungal activity in vitro (resazurin susceptibility screen), Inf. K; type: cell-based; conditions: 37 °C, 48 hours, resa time 17 hours, read-out: Inf. K pIC50 (converted)
Experimental: as §5

[13] = test system: Mucor circinelloides IHEM21105; experiment: Antifungal activity in vitro (resazurin susceptibility screen), Inf. L; type: cell-based; conditions: 27 °C, 48 hours, resa time 17 hours, read-out: Inf. L pIC50 (converted)
Experimental: as §5

Cytochrome P450 1A2 = biological target: T2, Cytochrome P450 1A2 (Homo sapiens, UniProt P05177); experiment: Human liver microsomal cytochrome P450 cocktail inhibition assay, Protocol C; conditions: human liver microsomes 0.2 mg/ml; probe phenacetin 80 microM
T2 sequence (P05177 1-516): T1 sequence (P05177 1-516)
Experimental: (§6) Probe substrates and final assay concentrations with the appropriate internal standard are outlined in Table 6a.
(§7) Assays were performed in 0.1 M phosphate buffer (pH 7.4), containing 0.2 mg/ml human liver microsomes (BD Gentest) and a probe substrate mix consisting of: phenacetin, tolbutamide, S-mephenyloin, dextromethorphan, amodiaquine and midazolam (Table 6a) and a range of test compound concentrations (0 to 30 micromolar) in a total volume of 100 microliters. After a 10 min pre-incubation at 37° C., the reaction was started with addition of NADPH at a final concentration of 1.0 mM. […] The samples are centrifuged for 10 min at 4° C. at 4000 rpm and 60 microliters supernatant is diluted with 180 microliters water. Each sample is injected onto a UPLC/MS system for the simultaneous measurement of the probe substrate metabolites and their associated deuterated internal standards. Percentage inhibition is calculated according to: %-inhibition=(1−Ri/R)*100, whereby Ri and R are the metabolite to internal standard peak area ratios in the presence and absence of inhibitor respectively.
(§8) Percentage inhibition data are plotted against the Log transformed test compound concentration and after curve fitting the IC50-value is determined.

Cytochrome P450 2C19 = Cytochrome P450 2C19 (Homo sapiens, UniProt P33261); experiment: as above; conditions: 2C19_S-Meph pIC50, human liver microsomes 0.2 mg/ml; probe S-mephenytoin 30 microM
Experimental: as §6, §7, §8

Cytochrome P450 2C9 = Cytochrome P450 2C9 (Homo sapiens, UniProt P11712); experiment: as above; conditions: 2C9 Tolbut pIC50, human liver microsomes 0.2 mg/ml; probe tolbutamide 100 microM
Experimental: as §6, §7, §8

Cytochrome P450 2D6 = Cytochrome P450 2D6 (Homo sapiens, UniProt P10635); experiment: as above; conditions: 2D6_Dextro pIC50, human liver microsomes 0.2 mg/ml; probe dextromethorphan 3 microM
Experimental: as §6, §7, §8

CYP3A4/5 = CYP3A4/5 (Homo sapiens, UniProt P08684); experiment: in vitro; conditions: liver microsomes, pH 7.4, probe midazolam (2 microM)
Experimental: as §6
After a 10 min pre-incubation at 37° C., the reaction was started with addition of NADPH at a final concentration of 1.0 mM. […] The samples are centrifuged for 10 min at 4° C. at 4000 rpm and 60 microliters supernatant is diluted with 180 microliters water. Each sample is injected onto a UPLC/MS system for the simultaneous measurement of the probe substrate metabolites and their associated deuterated internal standards.
as §8

CYP3A4, sequence (P08684 whole entry): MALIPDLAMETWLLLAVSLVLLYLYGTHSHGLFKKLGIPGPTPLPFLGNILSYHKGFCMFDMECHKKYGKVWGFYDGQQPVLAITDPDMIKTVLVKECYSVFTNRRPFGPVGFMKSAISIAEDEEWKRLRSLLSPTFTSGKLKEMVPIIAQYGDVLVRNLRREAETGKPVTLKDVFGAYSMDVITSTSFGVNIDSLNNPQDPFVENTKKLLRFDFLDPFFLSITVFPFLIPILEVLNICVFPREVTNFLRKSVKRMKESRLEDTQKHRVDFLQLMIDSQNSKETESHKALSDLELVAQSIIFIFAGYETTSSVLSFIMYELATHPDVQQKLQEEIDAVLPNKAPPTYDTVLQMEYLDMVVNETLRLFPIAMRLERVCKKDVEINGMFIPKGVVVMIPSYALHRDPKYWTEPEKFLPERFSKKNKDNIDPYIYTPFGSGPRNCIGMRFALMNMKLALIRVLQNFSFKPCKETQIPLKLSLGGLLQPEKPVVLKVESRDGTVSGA
CYP2D6, sequence (P10635 whole entry): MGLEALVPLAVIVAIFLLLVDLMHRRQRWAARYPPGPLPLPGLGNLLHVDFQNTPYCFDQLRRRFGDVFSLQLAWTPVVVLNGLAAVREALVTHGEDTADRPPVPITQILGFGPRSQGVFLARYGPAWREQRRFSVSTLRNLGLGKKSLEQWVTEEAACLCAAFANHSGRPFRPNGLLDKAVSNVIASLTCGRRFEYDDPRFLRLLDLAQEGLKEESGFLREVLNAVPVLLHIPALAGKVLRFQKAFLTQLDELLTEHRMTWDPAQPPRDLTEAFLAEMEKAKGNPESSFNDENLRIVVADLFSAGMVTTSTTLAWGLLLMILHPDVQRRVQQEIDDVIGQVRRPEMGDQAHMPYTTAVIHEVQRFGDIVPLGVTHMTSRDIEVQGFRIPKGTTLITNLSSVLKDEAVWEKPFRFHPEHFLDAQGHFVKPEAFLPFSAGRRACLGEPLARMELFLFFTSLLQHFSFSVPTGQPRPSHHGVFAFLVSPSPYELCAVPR
Cytochrome P450 2D6, sequence (P10635 whole entry): as above
Cytochrome P450 2C9, sequence (P11712 whole entry): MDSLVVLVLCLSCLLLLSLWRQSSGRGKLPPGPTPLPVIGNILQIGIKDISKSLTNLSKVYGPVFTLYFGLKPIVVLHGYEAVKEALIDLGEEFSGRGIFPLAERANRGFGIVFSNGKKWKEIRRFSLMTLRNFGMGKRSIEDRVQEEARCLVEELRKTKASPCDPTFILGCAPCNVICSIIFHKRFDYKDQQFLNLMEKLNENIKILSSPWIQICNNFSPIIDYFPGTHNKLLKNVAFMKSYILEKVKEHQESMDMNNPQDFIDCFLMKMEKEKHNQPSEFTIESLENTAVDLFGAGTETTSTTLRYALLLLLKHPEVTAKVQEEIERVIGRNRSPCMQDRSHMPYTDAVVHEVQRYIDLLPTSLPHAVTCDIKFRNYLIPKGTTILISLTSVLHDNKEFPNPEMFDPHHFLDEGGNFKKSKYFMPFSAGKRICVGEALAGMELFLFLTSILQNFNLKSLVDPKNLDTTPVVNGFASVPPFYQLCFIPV
CYP2C9, sequence (P11712 whole entry): as above
CYP3A4/5, sequence (P08684 2-503): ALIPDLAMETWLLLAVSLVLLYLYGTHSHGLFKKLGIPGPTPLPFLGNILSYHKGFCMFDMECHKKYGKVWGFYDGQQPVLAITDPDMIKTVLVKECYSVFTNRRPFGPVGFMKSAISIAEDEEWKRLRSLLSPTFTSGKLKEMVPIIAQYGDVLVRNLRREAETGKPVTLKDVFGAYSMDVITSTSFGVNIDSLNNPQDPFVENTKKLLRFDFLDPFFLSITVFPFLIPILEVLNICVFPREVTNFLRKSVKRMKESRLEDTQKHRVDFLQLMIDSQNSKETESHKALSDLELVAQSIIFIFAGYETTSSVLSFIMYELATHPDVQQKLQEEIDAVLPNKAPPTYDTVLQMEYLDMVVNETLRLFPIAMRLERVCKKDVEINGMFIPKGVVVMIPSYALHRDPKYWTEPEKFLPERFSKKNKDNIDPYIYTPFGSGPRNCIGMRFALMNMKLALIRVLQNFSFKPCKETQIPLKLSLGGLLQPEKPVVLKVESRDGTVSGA
Cytochrome P450 2C19, sequence (P33261 whole entry): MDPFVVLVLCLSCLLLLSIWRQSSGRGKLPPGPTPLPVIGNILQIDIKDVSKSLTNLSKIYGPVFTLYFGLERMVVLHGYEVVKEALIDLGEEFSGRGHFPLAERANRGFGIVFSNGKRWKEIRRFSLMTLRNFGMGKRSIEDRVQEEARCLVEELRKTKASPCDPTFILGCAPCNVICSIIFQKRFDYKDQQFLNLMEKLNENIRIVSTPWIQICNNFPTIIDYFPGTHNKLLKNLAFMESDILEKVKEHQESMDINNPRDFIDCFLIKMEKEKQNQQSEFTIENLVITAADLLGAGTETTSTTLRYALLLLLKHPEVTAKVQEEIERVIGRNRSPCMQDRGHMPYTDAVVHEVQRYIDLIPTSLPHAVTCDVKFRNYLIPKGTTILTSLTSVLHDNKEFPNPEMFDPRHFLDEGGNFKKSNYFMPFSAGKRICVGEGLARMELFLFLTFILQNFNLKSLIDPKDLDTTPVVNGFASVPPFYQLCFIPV

| SMILES | IC50 [1] [nM] | IC50 (Microsporum canis B68128) [nM] | IC50 [2] [nM] | IC50 [3] [nM] | IC50 [4] [nM] | IC50 [5] [nM] | IC50 [6] [nM] | %-compound metabolised_Met_hLM [7] [%] | %-compound metabolised Met_mLM [8] [%] | %-compound metabolised Met_gpLM [9] [%] | melting point [°C] | also measured |
| --- | --- | --- | --- | --- | --- | --- | --- | --- | --- | --- | --- | --- |
| CC(=O)c1ccc(C2=NCc3cc(Cl)cc(Cl)c3-n3cccc32)cc1 [Compound 26, 1-[4-(8,10-dichloro-6H-pyrrolo[1,2-a][1,4]benzodiazepin-4-yl)phenyl]-ethanone] | 1260 | 631 | 79.4 | > 63100 | 1580 | 10000 | 3980 | 19 | 45 | 44 | 183.6 to 186.7 | hCYP3A4_BFC_Pct_Inh (CYP3A4; substrate BFC): 33%; hCYP3A4_BQ_Pct_Inh (CYP3A4; substrate BQ): 32%; hCYP3A4_DBF_Pct_Inh (CYP3A4; substrate DBF): 55%; hCYP1A2_CEC_Pct_Inh (CYP1A2): 34%; hCYP2C9_MFC_Pct_Inh (CYP2C9): 69%; hCYP2D6_AMMC_Pct_Inh (CYP2D6): 74% |
| CS(=O)(=O)c1ccc(C2=NCc3c(Cl)cccc3-n3cccc32)cc1 [Compound 28, 7-chloro-4-[4-(methylsulfonyl)phenyl]-6H-pyrrolo[1,2-a][1,4]benzodiazepine] | > 63100 | 1260 | 2000 | > 63100 | > 63100 | > 63100 | 2510 | 2 | 41 | 21 | 218.5 to 219.9 | IC50 [10]: > 63100 nM; IC50 [11]: 7940 nM; IC50 (Rhizopus oryzae IHEM5223): > 63100 nM; IC50 [12]: > 63100 nM; IC50 [13]: > 63100 nM |
| Br.CC(=O)c1ccc(C2NCc3c(Cl)cccc3-n3cccc32)cc1 (centres unmarked) [drawing 96] |  |  |  |  |  |  |  |  |  |  |  | 1A2_Phen pIC50 (Cytochrome P450 1A2): <5.0; IC50 (Cytochrome P450 2C19): 1260 nM; IC50 (Cytochrome P450 2C9): 2510 nM; IC50 (Cytochrome P450 2D6): 2000 nM; IC50 at 10 min (CYP3A4/5): 5010 nM |
